Experiment in all cases: Preemergent activity
Type in all cases: in vivo

One test relates to Wild Oats. The note with it: Avena fatua, pre-emergence, read-out: Preemergence Control; for pest or weed control at 70 g/ha: 0.07 kgs/hectare; for pest or weed control at 140 g/ha: 0.14 kgs/hectare; for pest or weed control at 280 g/ha: 0.28 kgs/hectare; for pest or weed control at 560 g/ha: 0.56 kgs/hectare; for pest or weed control at 1120 g/ha: 1.12 kgs/hectare. As to the method:
(§1) In a representative operation, 2-[4-(2-fluoro-4-trifluoromethylphenoxy)phenoxy]propionic acid methyl ester, to be utilized in a series of tests, is dissolved in acetone to one half of the final volume (twice the final concentration) to be used and the acetone solution in each case is admixed with an equal volume of water containing 0.1 percent by weight of Tween-20 surface active material (Tween-20 is a trademark of Atlas Chemical Company). The composition, generally in the nature of an emulsion, was employed to treat separate respective seed beds of sandy loam soil of good nutrient content wherein each seed bed contained separate groups of good viable seeds, each group being of one of a known plant species. The various beds were positioned side by side and exposed to substantially identical conditions of temperature and light. Each bed was maintained so as to prevent any interaction with the test compound in different seed beds. Each seed bed was treated with the composition as a spray employing conventional spraying equipment to deposit a predetermined amount of the compound uniformly throughout the surface of the bed. Another seed bed was treated only with the acetone-Tween-20 water mixture with no chemical added to serve as a control.

In the next test the test system is Yellow Foxtail. The note with it: Setaria, pre-emergence, read-out: Preemergence Control; for pest or weed control at 70 g/ha: 0.07 kgs/hectare; for pest or weed control at 140 g/ha: 0.14 kgs/hectare; for pest or weed control at 280 g/ha: 0.28 kgs/hectare; for pest or weed control at 560 g/ha: 0.56 kgs/hectare; for pest or weed control at 1120 g/ha: 1.12 kgs/hectare. On the procedure: as §1

Another test relates to Johnson Grass. Conditions: Sorghum halepense, pre-emergence, read-out: Preemergence Control; for pest or weed control at 70 g/ha: 0.07 kgs/hectare; for pest or weed control at 140 g/ha: 0.14 kgs/hectare; for pest or weed control at 280 g/ha: 0.28 kgs/hectare; for pest or weed control at 560 g/ha: 0.56 kgs/hectare; for pest or weed control at 1120 g/ha: 1.12 kgs/hectare. On the procedure:
as §1

A further test deals with Wheat. Conditions: Triticum aestivum, pre-emergence, read-out: Preemergence Control; for plant injury at 70 g/ha: 0.07 kgs/hectare; for plant injury at 140 g/ha: 0.14 kgs/hectare; for plant injury at 280 g/ha: 0.28 kgs/hectare; for plant injury at 560 g/ha: 0.56 kgs/hectare; for plant injury at 1120 g/ha: 1.12 kgs/hectare. On the procedure: as §1
A further test concerns Barnyard Grass. The note with it: Echinochloa crus-galli, pre-emergence, read-out: Preemergence Control; for pest or weed control at 70 g/ha: 0.07 kgs/hectare; for pest or weed control at 140 g/ha: 0.14 kgs/hectare; for pest or weed control at 280 g/ha: 0.28 kgs/hectare; for pest or weed control at 560 g/ha: 0.56 kgs/hectare; for pest or weed control at 1120 g/ha: 1.12 kgs/hectare. On the procedure: as §1

For `CCCCCCCCOC(=O)C(C)Oc1ccc(Oc2ccc(Br)cc2F)cc1` (stereo not shown) [O(CH2)7 CH3], in the test with Wild Oats, the pest or weed control at 70 g/ha was determined as 0%, the pest or weed control at 140 g/ha is 0%, the pest or weed control at 280 g/ha stood at 100% and the pest or weed control at 560 g/ha was found to be 100%. Also, in the test with Wild Oats, the pest or weed control at 1120 g/ha was 100%. In the test with Yellow Foxtail, the pest or weed control at 70 g/ha was found to be 0%, the pest or weed control at 140 g/ha amounted to 0%, the pest or weed control at 280 g/ha amounted to 80% and the pest or weed control at 560 g/ha came to 90%. Besides, in the test with Yellow Foxtail, the pest or weed control at 1120 g/ha was 100%. In addition, in the test with Johnson Grass, the pest or weed control at 70 g/ha is 0%, the pest or weed control at 140 g/ha turned out to be 0%, the pest or weed control at 280 g/ha turned out to be 100% and the pest or weed control at 560 g/ha worked out at 100%. Besides, the pest or weed control at 1120 g/ha with Johnson Grass is 100%. Besides, in the test with Wheat, the plant injury at 70 g/ha was determined as 0%, the plant injury at 140 g/ha amounted to 0%, the plant injury at 280 g/ha is 0% and the plant injury at 560 g/ha is 0%. For the same molecule, in the test on Wheat, the plant injury at 1120 g/ha was 90%. Also, in the test on Barnyard Grass, the pest or weed control at 70 g/ha came out at 9%, the pest or weed control at 140 g/ha was found to be 95%, the pest or weed control at 280 g/ha is 100% and the pest or weed control at 560 g/ha is 100%. Also, the pest or weed control at 1120 g/ha with Barnyard Grass worked out at 100%.

In the case of `Cc1cc(Cl)ccc1NC(=O)C(C)Oc1ccc(Oc2ccc(Br)cc2F)cc1` (stereo not shown), in the test with Wild Oats, the pest or weed control at 140 g/ha was determined as 0%, the pest or weed control at 560 g/ha is 0% and the pest or weed control at 1120 g/ha was determined as 90%. Moreover, in the test with Yellow Foxtail, the pest or weed control at 140 g/ha came out at 0%, the pest or weed control at 560 g/ha was determined as 70% and the pest or weed control at 1120 g/ha amounted to 100%. In addition, in the test with Johnson Grass, the pest or weed control at 140 g/ha stood at 0%, the pest or weed control at 560 g/ha came to 0% and the pest or weed control at 1120 g/ha is 60%. In the test with Wheat, the plant injury at 70 g/ha came to 0%, the plant injury at 140 g/ha amounted to 0%, the plant injury at 280 g/ha was found to be 0% and the plant injury at 560 g/ha is 0%. Further, the plant injury at 1120 g/ha with Wheat stood at 40%. For the same molecule, in the test on Barnyard Grass, the pest or weed control at 140 g/ha amounted to 0%, the pest or weed control at 560 g/ha was determined as 0% and the pest or weed control at 1120 g/ha amounted to 100%.

On to `CC(Oc1ccc(Oc2ccc(Br)cc2F)cc1)C(=O)Nc1ccc(C(F)(F)F)cc1` (stereo not shown), for which, in the test on Wild Oats, the pest or weed control at 140 g/ha was 0% and the pest or weed control at 1120 g/ha amounted to 60%. In the test with Yellow Foxtail, the pest or weed control at 140 g/ha came to 0% and the pest or weed control at 1120 g/ha stood at 0%. Further, in the test on Johnson Grass, the pest or weed control at 140 g/ha amounted to 0% and the pest or weed control at 1120 g/ha came out at 20%. In addition, in the test on Wheat, the plant injury at 70 g/ha was 0%, the plant injury at 140 g/ha amounted to 0%, the plant injury at 280 g/ha was 0% and the plant injury at 560 g/ha worked out at 0%. Also, the plant injury at 1120 g/ha in the test with Wheat was found to be 0%. For the same molecule, in the test with Barnyard Grass, the pest or weed control at 140 g/ha came out at 0% and the pest or weed control at 1120 g/ha is 50%.

On to `CC(Oc1ccc(Oc2ccc(Br)cc2F)cc1)C(=O)OCCN(C)C` (stereo not shown) [O(CH2)2 N(CH3)2], for which, in the test with Wild Oats, the pest or weed control at 70 g/ha was determined as 0%, the pest or weed control at 140 g/ha amounted to 30%, the pest or weed control at 280 g/ha was 30% and the pest or weed control at 560 g/ha worked out at 90%. In the test with Wild Oats, the pest or weed control at 1120 g/ha came to 99%. Further, in the test with Yellow Foxtail, the pest or weed control at 70 g/ha stood at 0%, the pest or weed control at 140 g/ha turned out to be 0%, the pest or weed control at 280 g/ha amounted to 0% and the pest or weed control at 560 g/ha was 100%. For the same molecule, the pest or weed control at 1120 g/ha in the test with Yellow Foxtail was 100%. In the test with Johnson Grass, the pest or weed control at 70 g/ha worked out at 0%, the pest or weed control at 140 g/ha stood at 0%, the pest or weed control at 280 g/ha worked out at 60% and the pest or weed control at 560 g/ha was 95%. Further, in the test with Johnson Grass, the pest or weed control at 1120 g/ha stood at 100%. In the test with Wheat, the plant injury at 70 g/ha is 0%, the plant injury at 140 g/ha was found to be 0%, the plant injury at 280 g/ha was 0% and the plant injury at 560 g/ha is 0%. The plant injury at 1120 g/ha in the test on Wheat is 0%. In the test with Barnyard Grass, the pest or weed control at 70 g/ha came out at 70%, the pest or weed control at 140 g/ha stood at 100%, the pest or weed control at 280 g/ha worked out at 100% and the pest or weed control at 560 g/ha is 100%. The pest or weed control at 1120 g/ha in the test on Barnyard Grass worked out at 100%.

As for `CC(Oc1ccc(Oc2ccc(Br)cc2F)cc1)C(N)=O` (stereo not shown) [NH2, 2-(4-(4-Bromo-2-fluorophenoxy)phenoxy)propionamide], in the test with Wild Oats, the pest or weed control at 70 g/ha turned out to be 0%, the pest or weed control at 140 g/ha is 0%, the pest or weed control at 280 g/ha was 50% and the pest or weed control at 560 g/ha came to 50%. The pest or weed control at 1120 g/ha with Wild Oats is 95%. Further, in the test with Yellow Foxtail, the pest or weed control at 70 g/ha is 0%, the pest or weed control at 140 g/ha is 90%, the pest or weed control at 280 g/ha is 95% and the pest or weed control at 560 g/ha stood at 100%. Moreover, the pest or weed control at 1120 g/ha with Yellow Foxtail turned out to be 100%. Also, in the test on Johnson Grass, the pest or weed control at 70 g/ha was found to be 0%, the pest or weed control at 140 g/ha stood at 0%, the pest or weed control at 280 g/ha was 30% and the pest or weed control at 560 g/ha is 90%. The pest or weed control at 1120 g/ha with Johnson Grass was 100%. Also, in the test on Wheat, the plant injury at 70 g/ha was 0%, the plant injury at 140 g/ha amounted to 0%, the plant injury at 280 g/ha turned out to be 30% and the plant injury at 560 g/ha came to 90%. Also, in the test with Wheat, the plant injury at 1120 g/ha was 40%. Further, in the test on Barnyard Grass, the pest or weed control at 70 g/ha worked out at 20%, the pest or weed control at 140 g/ha came to 100%, the pest or weed control at 280 g/ha stood at 100% and the pest or weed control at 560 g/ha turned out to be 100%. The pest or weed control at 1120 g/ha in the test on Barnyard Grass was found to be 100%.

As for `CCCCOC(=O)C(C)Oc1ccc(Oc2ccc(Br)cc2F)cc1` (stereo not shown) [O(CH2)3 CH3, Propionic acid: 2-(4-(4-bromo-2-fluorophenoxy)phenoxy), n-butyl ester], in the test on Wild Oats, the pest or weed control at 70 g/ha was 0%, the pest or weed control at 140 g/ha worked out at 0%, the pest or weed control at 280 g/ha was 50% and the pest or weed control at 560 g/ha was determined as 80%. Further, the pest or weed control at 1120 g/ha in the test with Wild Oats is 100%. Further, in the test with Yellow Foxtail, the pest or weed control at 70 g/ha was 0%, the pest or weed control at 140 g/ha is 40%, the pest or weed control at 280 g/ha was 95% and the pest or weed control at 560 g/ha worked out at 100%. In the test on Yellow Foxtail, the pest or weed control at 1120 g/ha came to 100%. Also, in the test on Johnson Grass, the pest or weed control at 70 g/ha worked out at 0%, the pest or weed control at 140 g/ha amounted to 0%, the pest or weed control at 280 g/ha amounted to 65% and the pest or weed control at 560 g/ha was found to be 100%. Also, the pest or weed control at 1120 g/ha in the test on Johnson Grass is 100%. Moreover, in the test with Wheat, the plant injury at 70 g/ha is 0%, the plant injury at 140 g/ha is 0%, the plant injury at 280 g/ha was 0% and the plant injury at 560 g/ha came out at 30%. In addition, the plant injury at 1120 g/ha in the test on Wheat worked out at 30%. Moreover, in the test on Barnyard Grass, the pest or weed control at 70 g/ha came out at 0%, the pest or weed control at 140 g/ha amounted to 70%, the pest or weed control at 280 g/ha was 100% and the pest or weed control at 560 g/ha stood at 100%. Further, in the test with Barnyard Grass, the pest or weed control at 1120 g/ha was found to be 100%.

Regarding `C=CCNC(=O)C(C)Oc1ccc(Oc2ccc(Br)cc2F)cc1` (stereo not shown), in the test on Wild Oats, the pest or weed control at 140 g/ha was 80%, the pest or weed control at 280 g/ha is 90%, the pest or weed control at 560 g/ha came to 80% and the pest or weed control at 1120 g/ha came out at 90%. Besides, in the test with Yellow Foxtail, the pest or weed control at 140 g/ha was determined as 0%, the pest or weed control at 280 g/ha amounted to 30%, the pest or weed control at 560 g/ha is 90% and the pest or weed control at 1120 g/ha worked out at 100%. In the test with Johnson Grass, the pest or weed control at 140 g/ha stood at 0%, the pest or weed control at 280 g/ha is 50%, the pest or weed control at 560 g/ha is 90% and the pest or weed control at 1120 g/ha stood at 100%. Moreover, in the test with Wheat, the plant injury at 70 g/ha was 0%, the plant injury at 140 g/ha is 0%, the plant injury at 280 g/ha amounted to 0% and the plant injury at 560 g/ha turned out to be 0%. For the same molecule, in the test with Wheat, the plant injury at 1120 g/ha turned out to be 0%. Also, in the test on Barnyard Grass, the pest or weed control at 140 g/ha amounted to 0%, the pest or weed control at 280 g/ha was 100%, the pest or weed control at 560 g/ha is 100% and the pest or weed control at 1120 g/ha was 100%.

Values taken from patent US4725683A, “Fluorophenoxyphenoxypropionates and derivatives thereof” (The Dow Chemical Company, priority 1985, dated 1988).
